Tests used:
ICAM1 = assay: Pro-inflammatory cytokine response assay, cell-based ELISA; set-up: species or system human; conditions: 1 nM, SC-derived ECs
Protocol: FIG. 15A: Pro-inflammatory cytokine response assay. SC-derived ECs upregulate the expression of the adhesion molecule ICAM1 upon pro-inflammatory cytokine administration. Cell-based ELISA was used to measure the activation of SC-derived endothelial cells in response to 1 nM TNFα.
(§1) 20 000 Stem Cell-derived endothelial cells/well were seeded onto 96-well plates and cultured for 2 days in EGM-2 medium (Lonza) until confluence. Media was changed with EGM-2 medium supplemented with 1 nM TNFα (R&D Systems). After an incubation of 24 hours SC-derived ECs were briefly PBS-washed and PFA-fixed Primary antibodies for human anti-ICAM and anti-E-Selectin were purchased from R&D Systems. An anti-mouseIgG/biotinylated (Amersham) as secondary antibody and a Streptavidin/Peroxidase complex (Amersham) were used. Luminescence was quantified in a microplate reader.

[1] = tested on: HL60 cells with SC-derived ECs; assay: Leukocyte-endothelial adhesion assay; format: cell-based, human; conditions: SC-derived ECs stimulated, 1 nM
Protocol: FIG. 16: Leukocyte-endothelial adhesion assay. Activated endothelial cells present adhesion molecules for the recruitment leukocytes. The response to 1 nM TNFα was studied by co-cultivating Calcein-stained HL60 cells with SC-derived ECs. Adhesion of HL60 cells to endothelial cells was quantified by measuring the fluorescence intensity.
2×10^4 Stem Cell-derived endothelial cells/well were seeded onto 96-well plates and cultured for 2 days in EGM-2 medium (Lonza) until confluence. Media was changed with EGM-2 medium supplemented with 1 nM TNFα (R&D Systems). SC-derived ECs were TNFα-stimulated for 4 hours. Thereafter 1.5×10^5 Calcein-labeled HL60 cells were added to each 96 well. After an incubation of one hour medium was removed and Sc-ECs were PBS-washed. Lyse the plate with 1% NP-40 detergent solution for 15 minutes. Supernatants were transferred into optiplates and fluorescence measured in a microplate reader.
To determine whether the differentiation system generates bona fide ECs, we challenged the SC-derived ECs with proinflammatory cytokines and analyzed for an activated expression of effectors of immune cell migration. […] We further confirmed by flow cytometry the presence of ICAM1 and E-SELECTIN upon TNF-α as well as […] stimulation (FIG. 16). HLA-ABC expression served as control to analyze a general und cell type unspecific response to proinflammatory cytokines. […]

E-SELECTIN = assay: Pro-inflammatory cytokine response assay, cell-based ELISA; set-up: species or system human; conditions: 1 nM, SC-derived ECs
Protocol: FIG. 15B: Pro-inflammatory cytokine response assay. SC-derived ECs upregulate the expression of the adhesion molecule E-SELECTIN upon pro-inflammatory cytokine administration. Cell-based ELISA was used to measure the activation of SC-derived endothelial cells in response to 1 nM TNFα.
as §1

In the case of TNFα, the ICAM1 expression (ICAM1) is reported as “significantly upregulated”, the “adhesion / recruitment of HL60 leukocytes” value [1] is reported as “significantly enhanced” and the E-SELECTIN expression (E-SELECTIN) is reported as “significantly upregulated”.

Reference: patent US20200182861A1, “METHOD FOR DIFFERENTIATION OF PLURIPOTENT STEM CELLS INTO VASCULAR BED CELLS” (Hoffmann-La Roche Inc., priority 2011, published 2020)
